Results reported in paper PMC6944487, “Tandem Molecular Self-Assembly Selectively Inhibits Lung Cancer Cells by Inducing Endoplasmic Reticulum Stress” (Research, 2019).
Read-outs that look alike come from different tables or passages of the source. One block for each compound: values may come before it. *1 amine or outer side, *2 acyl side, *3 side chain or, on linkers, in order; H or OH if unused. Where a SMILES comes first, the peptide text is derived from it. [ ]: non-standard residue; d: D form. The star is where a group is joined. X1 = O=C(c1ccc(/N=N/c2ccc(N[*:1])cc2)cc1)[*:2]; pY = N[C@@H](Cc1ccc(OP(=O)(O)O)cc1)C(=O)O; NBD = O=[N+]([O-])c1ccc(*)c2nonc12; βAla = NCCC(=O)O

How the values were obtained:
[1] = tested on: MCF-7 cells; assay: Cell proliferation (SRB) assay, MCF-7; assay type: cell-based; details: 48 h incubation, n = 3
Description: (§1) PC-3, MCF-7, HeLa, U87, HPAEpiC, and A549 cells were purchased from the Type Culture Collection of the Chinese Academy of Sciences (Shanghai, China); PC-3, MCF-7, HeLa, U87, and A549 cells were cultured in Dulbecco's Modified Eagle's medium (DMEM) supplemented with 10% v/v fetal bovine serum (FBS), 100 U/mL penicillin, and 100 μg/mL streptomycin; HPAEpiC cells were cultured in RPMI 1640 Medium supplemented with 10% v/v fetal bovine serum, 100 U/mL penicillin, and 100 μg/mL streptomycin. All cells were at 37°C in a humidified atmosphere of 5% CO2.
(§2) In this experiment, all cell lines were incubated in a 96-well plate at a density of about 6000. According to previous method, cell was fixed by cold 10% trichloroacetic acid solution at 4°C overnight after incubated with compound for 48 h. Then, discarding the fixative solution and washed by water for three times, put the 96-well plate in a 37°C oven to dry. Next, 0.4% SRB solution was used to stain cell for 20 min at room temperature to form protein-bound dry, then using 1% AcOH solution to clean excessive SRB. Put the 96-well plate in a 37°C oven to dry and add 10 mM Tris base solution of 100 μL every well to solubilize the protein-bound dry for 30 min. Measure the OD at 570 nm in a microplate reader.

[2] = tested on: U87 cells; assay: Cell proliferation (SRB) assay, U87; assay type: cell-based; details: 48 h incubation, n = 3
Description: as §1, §2

[3] = Appearance of solution in PBS; assay type: physicochemical; details: 200 μM (0.03 wt%) in PBS pH 7.4
Description: (§3) The Comp. […] 1. […] We thereafter added the enzyme ALP (1 U·mL^−1) to the PBS solution of Comp. 1 at 37°C, and the solution remained clear after 12 h (Figure 2(a)). […] 1 had been converted to Comp. 2 within 6 h (Figures 2(a) and ). Accordingly, the nanofibers with a diameter of 6–10 nm formed in the resulting solution of Comp. 2 (Figure 2(c)). With the addition of rat liver microsomes (226 μg·mL^−1) and NADPH (50 equiv.) to trigger the conversion from azobenzene to aniline, a yellowish precipitate was clearly observed within 24 h (Figure 2(b)). […] 2 had been converted into Comp. 3 within 24 h (Figures 2(b) and ). […] 2 and Comp. 3. […] The above observations strongly indicated the tandem molecular self-assembly behavior of Comp. 1 with the catalysis by ALP and reductase.
(§4) […] of Comp. 1 was dissolved in 500 μL of PBS (pH = 7.4) as a stock solution (PBS was bubbled by Argon for 30 min in advance). The concentration of the stock solution was 200 μM. Na2CO3 (1 M) was added to the above solution to adjust the final pH to 7.4. The solution was incubated at 37°C. The alkali phosphatase (1 U/mL) was then added to the solution for 12 hours at 37°C to trigger the first step of self-assembly. After that, rat liver microsomes (226 μg/mL) and NADPH (50 equiv.) were added for 24 hours at 37°C to trigger the second step of self-assembly.

[4] = tested on: A549 cells; assay: Lysosome colocalization (CLSM, Lyso-Tracker); assay type: cell-based, human; details: 200 μM; for lysosomal escape: 4 h, Lyso-Tracker; for mean fluorescence intensity in cells (versus cells treated with Comp. 4 and Comp. 5): A549 cells
Description: (§5) A549 cells was seeded in CLSM cultural dish at a density of 1 × 10^5 cells. After incubation for 12 h, a medium was removed. The cells were then incubated with Comp. 1, 2, 4, or 5 (200 μM) for 1 or 4 h (lysosome colocation). Cells were incubated with Comp. 1 (200 μM) for 8, 10, and 12 h (mitochondrial colocation). Next, the medium containing different compound was removed and washed by PBS for three times, and lysosome tracker (1×) was incubated with cells for 45 min. The medium was removed and the cells were washed by PBS three times. 1-2 mL of DMEM was added for imaging by live cell imaging systems (λexc. = 488 nm, emission = 510‐560 nm; λexc. = 543 nm, emission = 650‐750 nm). Mito-Tracker (1×) was incubated with cells for 30 min. The medium was then removed and washed by PBS three times. 1-2 mL of DMEM was added for imaging by live cell imaging systems (λexc. = 488 nm, emission = 510‐560 nm; λexc. = 633 nm, emission = 650‐750 nm, all test conditions are consistent).

[5] = tested on: A549 cells; assay: Mitochondrial colocalization / cytoplasmic vacuolization, ER stress (CLSM, Mito-Tracker); assay type: cell-based, human; details: 200 μM, 10-12 h
Description: as §5

[6] = tested on: A549 xenograft tumors; assay: In vivo antitumor assay, A549 xenograft; design: species or system BALB/c nude mice; details: 5 mg/kg i.v. once every three days, tumors at day 15
Description: (§6) A549 cells were maintained in our lab. The BALB/c nude (6 weeks old, female) mice purchased from Beijing Vital River Laboratory Animal Technology Co., Ltd. were used. 5 × 10^7 A549 cells (100 μL) mixed with growth factor-reduced Matrigel (50 μL, BD Biosciences) were subcutaneously injected into the right flank of each mouse. The drug treatment was started when tumor volume reached 80 mm^3; the tumor volume was calculated by the formula: length∗width^2/2. Mice (n = 5) received compounds 1, 2, 4, and 5 (5.0 mg/kg) in PBS by i.v. injection, whereas the control group (n = 5) received PBS only. The compound was injected every three days. The mice were weighed, and tumors were measured every two days during the treatment period.
The mice were sacrificed to obtain tumor tissues; tumor tissues were fixed by 4% formalin over 48 h, embedded in paraffin, cut into 5-6 μm sections for H&E staining, and evaluated using light microscopy as previously described method.

[7] = tested on: PC-3 cells; assay: Cell proliferation (SRB) assay, PC-3; assay type: cell-based; details: 48 h incubation, n = 3
Description: as §1, §2

[8] = Body weight of treated tumor-bearing mice; assay type: in vivo, BALB/c nude mice; details: 5 mg/kg i.v. once every three days
Description: as §6

[9] = tested on: A549 cells; assay: JC-1 staining, mitochondrial membrane potential; assay type: cell-based, human; details: 200 μM, 4 h time point
Description: Mitochondrial membrane potential was assessed by staining with JC-1 dye (5,50,6,60-tetrachloro-1,10,3,30-tetraethylbenzimidazol-carbocyanine iodide) (abcam). 1 × 10^4 A549 cells per well, seeded in 96-well plates, were treated with Comp.1 (200 μM) for different time points and FCCP (100 μM) for 4 h. After treatment, a medium was removed and the cells were then incubated in 100 μL PBS containing JC-1 dye (20 μM) for 15 min at 37°C and subsequently washed with PBS for three times. The red fluorescence (λexc. = 543 nm, emission = 570‐620 nm) was determined by a microplate reader (BioTek).
A549 cells were seeded in CLSM cultural dish at a density of 1 × 10^5 cells. After incubation for 12 h, a medium was removed. The cells were then incubated with Comp. 1 (200 μM) at different time points. The cells also were incubated with FCCP (100 μM) for 4 h as the positive control group. Then, removing medium, JC-1 staining kit (20 μM) was incubated with A549 cells for 15 min. The medium was removed, and the cells were washed by PBS three times. 1 mL of PBS was added for imaging by live cell imaging systems (green channel (depolarization) λexc. = 488 nm, emission = 500 − 540 nm; red channel (hyperpolarization) λexc. = 543 nm, emission = 570‐620 nm, all test conditions are consistent).

[10] = tested on: A549 cells; assay: Cell proliferation (SRB) assay, A549; assay type: cell-based, human
Description: as §1, §2

[11] = Critical aggregation concentration (CAC) by dynamic light scattering; assay type: physicochemical; details: DLS, light scattering intensity per concentration, PBS pH 7.4
Description: The synthesized compounds were characterized by 1H NMR (Bruker ARX-400) using DMSO-d6 as the solvent. HPLC was conducted at the LUMTECH HPLC (Germany) system using a C18 RP column with methanol (0.05% of TFA) and water (0.05% of TFA) as the eluents. LC-MS was conducted at the LCMS-20AD (Shimadzu) system. HR-MS was performed at the Agilent 6520 Q-TOF LC/MS using ESI-L low concentration tuning mix (Lot No. LB60116 from the Agilent Tech.). CMC values and size distribution of micelles were determined by dynamic light scattering (DLS); this experiment was conducted on a laser light scattering spectrometer (BI-200SM, Brookhaven, USA). The morphology conversion of the peptide derivatives was measured by TEM performed on a Tecnai G2 F20 system, operating at 200 kV. Cellular uptake and drug tracking images were taken by a confocal laser scanning microscopy (Leica TSC SP8, Germany).
The CAC value of compounds 1, 2, 4, and 5 in PBS solution (pH = 7.4) was determined by dynamic light scattering (DLS), and the light scattering intensity was recorded for each concentration analyzed.

[12] = tested on: HeLa cells; assay: Cell proliferation (SRB) assay, HeLa; assay type: cell-based; details: 48 h incubation, n = 3
Description: as §1, §2

[13] = tested on: normal human alveolar epithelial cells (HPAEpiC); assay: Cell proliferation (SRB) assay, HPAEpiC; assay type: cell-based; details: 48 h incubation, n = 3
Description: as §1, §2

[14] = tested on: different cell lines; assay: Cell uptakes; assay type: cell-based; details: 200 μM, 6 h, cell lysate OD 488 nm, n = 3
Description: Cells were incubated in 12-well plates at a density of 10 × 10^6 cells. The cell cultural medium containing 200 μM of each compound was added to the cells, and the upper medium was removed at 6 h time point. Cells were washed for three times with PBS or DMEM. After being treated with cell lysis solution (1 mL per well contained 200 μL DMSO) for 15 min, the solutions were centrifuged at […] for 10 min. The amount of compound in the upper solution was determined by a microplate reader at OD of 488 nm (Bio-Rad Mark^TM, America).

[15] = tested on: T1, alkaline phosphatase (ALP); assay: Conversion by alkaline phosphatase (LC-MS); assay type: in vitro ADME; details: alkaline phosphatase (ALP) in PBS; ALP 1 U/mL, 200 μM in PBS pH 7.4, 37°C, within 6 h, LC-MS trace; read-out: Comp. 1 converted to Comp. 2
T1 construct: purchased Takara D2250
Description: as §3, §4

[16] = tested on: reductase (rat liver microsomes); assay: in vitro; assay type: in vitro ADME; details: pH 7.4
Description: as §3, §4

[17] = SRB, 48 h incubation, mean ± SEM n = 3, read-out: IC50 in A549 cells

SMILES: N=C(N)NCCC[C@H](NC(=O)[C@H](CCC(=O)O)NC(=O)c1ccc(/N=N/c2ccc(NC(=O)CNC(=O)[C@H](Cc3ccc(OP(=O)(O)O)cc3)NC(=O)[C@H](Cc3ccccc3)NC(=O)[C@H](Cc3ccccc3)NC(=O)CNC(=O)CCNc3ccc([N+](=O)[O-])c4nonc34)cc2)cc1)C(=O)NCC(=O)N[C@@H](CC(=O)O)C(=O)O [Comp. 1, NBD-GFFpYG-N=N-ERGD] ({NBD-βAla}-GFF[pY]G[X1]ERGD-OH)
IC50 [1]: ~15.9 µM
IC50 [2]: ~5.07 µM
appearance of solution [3]: clear solution
lysosomal escape [4]: efficiently escaped from the late endosomes/lysosomes
mean fluorescence intensity in cells (versus cells treated with Comp. 4 and Comp. 5) [4]: significantly higher
ER stress / cytoplasmic vacuolization [5]: massive cytoplasmic vacuolization
H&E histology of tumor tissue [6]: severely apoptotic
IC50 [7]: ~20.5 µM
body weight change [8]: did not exhibit a loss of body weight
mitochondrial membrane potential (JC-1) [9]: caused mitochondrial depolarization
IC50 [10, 17]: ~2.49 µM
critical aggregation concentration (CAC) [11]: 263.6 µM
IC50 [12]: ~74.7 µM
IC50 [13]: ~40.1 µM
cellular uptake in different cells [14]: no significant differences
metabolised at 6 h, 200 μM [15]: > 95%

SMILES: N=C(N)NCCC[C@H](NC(=O)[C@H](CCC(=O)O)NC(=O)c1ccc(/N=N/c2ccc(NC(=O)CNC(=O)[C@H](Cc3ccc(O)cc3)NC(=O)[C@H](Cc3ccccc3)NC(=O)[C@H](Cc3ccccc3)NC(=O)CNC(=O)CCNc3ccc([N+](=O)[O-])c4nonc34)cc2)cc1)C(=O)NCC(=O)N[C@@H](CC(=O)O)C(=O)O [Comp. 2, NBD-GFFYG-N=N-ERGD] ({NBD-βAla}-GFFYG[X1]ERGD-OH)
lysosomal escape [4]: small fraction of lysosomal escape
mean fluorescence intensity in cells (versus cells treated with Comp. 4 and Comp. 5) [4]: significantly higher
ER stress / cytoplasmic vacuolization [5]: only caused slight ER stress
H&E histology of tumor tissue [6]: underwent apoptosis
IC50 [10, 17]: 82.7 µM
metabolised at 24 h, 200 μM [16]: > 70%

SMILES: N=C(N)NCCC[C@H](NC(=O)[C@H](CCC(=O)O)NC(=O)CNC(=O)[C@H](Cc1ccc(OP(=O)(O)O)cc1)NC(=O)[C@H](Cc1ccccc1)NC(=O)[C@H](Cc1ccccc1)NC(=O)CNC(=O)CCNc1ccc([N+](=O)[O-])c2nonc12)C(=O)NCC(=O)N[C@@H](CC(=O)O)C(=O)O [Comp. 4, NBD-GFFpYGERGD] ({NBD-βAla}-GFF[pY]GERGD-OH)
IC50 [10, 17]: > 500 µM

IC50 ([10]; 48 h): > 500 µM
SMILES: N=C(N)NCCC[C@H](NC(=O)[C@H](CCC(=O)O)NC(=O)CNC(=O)[C@H](Cc1ccc(O)cc1)NC(=O)[C@H](Cc1ccccc1)NC(=O)[C@H](Cc1ccccc1)NC(=O)CNC(=O)CCNc1ccc([N+](=O)[O-])c2nonc12)C(=O)NCC(=O)N[C@@H](CC(=O)O)C(=O)O [Comp. 5, NBD-GFFYGERGD] ({NBD-βAla}-GFFYGERGD-OH)
